# Results: US10966962B2, “Method for treating neurodegenerative diseases” (THE BOARD OF TRUSTEES OF THE LELAND STANFORD JUNIOR …, priority 2014, dated 2021)
# Columns and labels:
# [1] = system: HD transgenic mice; experiment: Wheel-running test in HD transgenic animals (R6/2); assay type: in vivo; settings: HD transgenic (R6/2); 25 mg/kg orally 3 times a week for 4 weeks from 6 weeks of age; constant speed 5 rpm
# Experimental: The wheel-running test in this example was performed similarly to that described in Example 8. HD transgenic animals (R6/2) were purchased from Jackson Laboratories. […] HD transgenic mice were orally treated 3 times a week for 4 weeks with either 0.5% methylcellulose (n=8) or ZLN005 (Sigma) at 25 mg/kg in 0.5% methylcellulose (n=7), starting at 6 weeks of age. Subsequently, at 10 weeks of age, these mice were subjected to 2 weeks of training on a treadmill at a constant speed of 5 rpm (rotations per minute). After the training, mice were tested for motor performance at a constant speed of 5 rpm. […] Unpaired t-test was used for statistical analysis.
# [2] = system: Ppargc1a
# Experimental: To induce symptoms of PD, MPTP (20 mg/kg) was administered intraperitoneally in sterile PBS 4 times at 2-hour intervals on day 1. […] Log-rank test was used for statistical analysis.
# Ppargc1a, an inducer of mitochondrial biogenesis, is widely expressed in cells throughout the body.
# For protein expression studies, animals were sacrificed on Day 4, 24 hours after the 3rd oral dosage of ZLN005 and PBS-perfused brain tissues were digested with Collagenase IV, processed for microglia isolation by flow cytometry (Ginhoux et al Science, 330:841-5, 2010), and immunoblot analysis of Ppargc1a expression.
# [3] = system: ALS transgenic mice; experiment: Survival of ALS transgenic animals; assay type: in vivo
# Experimental: ALS transgenic mice were orally treated 3 times a week with 0.5% methylcellulose or ZLN005 (Sigma) at 25 mg/kg in 0.5% methylcellulose, starting at 5, 10 and 15 weeks of age.
# Survival of ALS-Ctrl (n=18) and ALS-ZLN mice (n=8) were monitored until all animals succumbed. […] Log-rank test was used for statistical analysis.
# [4] = system: microglia; experiment: Ex vivo TNF-α production by microglia from MPTP-treated FF and Cre animals; assay type: in vivo, mice; settings: 2-hour ex vivo assay, Day 4
# Experimental: Animals with microglia-specific deletion of Ppargc1a were generated by crossing mice harboring the foxed allele of Ppargc1a (Ppargc1a^LoxP/LoxP) with those expressing Tamoxifen inducible Cre recombinase under the control of Cx3cr1 promoter (Cx3cr1^CreER). To induce Cre-mediated deletion of Ppargc1a in Cx3cr1 expressing cells, Tamoxifen (Sigma) in 200 μl corn oil (50 mg/ml, Sigma) was administered to 3 weeks old (Ppargc1a^LoxP/LoxPCx3cr1^CreER) mice twice at 48-hour intervals (Wolf et al Front Cell Neurosci 2013, 18;7:26. doi: 10.3389/fnce1.2013.00026). Littermates carrying the foxed allele of Ppargc1a alleles but lacking expression of Cre recombinase (Ppargc1a^LoxP/LoxP) were used as controls. Animals were rested for another 5-6 weeks before MPTP was administered. Animals with microglia-specific deletion of Ppargc1a and controls were generated as described in Example 1. […] PBS-perfused brain tissues of sacrificed animals were digested with Collagenase IV and isolated by flow cytometry. For measuring microglial production of TNF-α, MPTP-ZLN (n=5), MPTP-Ctrl (n=10) and Veh (n=6) animals were sacrificed. Isolated microglia were subjected to a 2-hour ex vivo TNF-α production assay. Supernatant samples were collected for TNF-α measurement with CBA technology (BD). […] Unpaired t-tests were used for statistical analyses.
# [5] = system: DLB transgenic animals; experiment: Wheel-running test in DLB transgenic animals (SNCA*A53T); assay type: in vivo, mice; settings: 25 mg/kg orally 3 times a week for 12 weeks
# Experimental: […] transgenic mice, an animal model in which the mutated form of human alpha synuclein is overexpressed, were generated to study pathological mechanisms in PD and DLB (Lee et al, Proc Natl Acad Sci USA. 2002, 13:8968-8970). […] DLB transgenic animals were purchased from Jackson Laboratories and were orally treated 3 times a week with 0.5% methylcellulose (Ctrl) or ZLN005 (ZLN) at 25 mg/kg in vehicle, starting at 8 weeks of age for 12 weeks. Subsequently, at 20 weeks of age, these animals were subjected to 1.5 weeks of training on a treadmill at a constant speed 10 rpm and then 1.5 weeks of training at an accelerating speed from 5-15 rpm, similar to those described in Example 8. After the training period at 21.5 and 23 weeks of age, animals were tested for motor performance at a constant speed and at an accelerating speed, respectively. DLB-ZLN mice (n=11) show an increase in latency to fall in comparison to DLB-Ctrl mice (n=9) at a constant speed of 10 rpm (271.5 seconds vs. 252.8 seconds). […] Thus, motor dysfunction of DLB mice was alleviated by ZLN005 treatment. Unpaired t-tests were used for statistical analyses.
# [6] = system: brain perivascular macrophages; experiment: Brain perivascular macrophage iNOS, IL6, TNFα in ALS transgenic animals; assay type: in vivo, mice; settings: 25 mg/kg orally 3 times a week for 8 weeks, 13 weeks of age
# Experimental: ALS transgenic animals were purchased from Jackson Laboratories. These animals express the G93A mutation in the gene SOD1 which has been implicated as the cause of the disease in a subset of human subjects with familial ALS. […] These animals represent a gold standard model for therapeutic discovery in the field of ALS research. ALS transgenic animals were orally treated 3 times a week for 8 weeks with 0.5% methylcellulose or ZLN005 (Sigma) at 25 mg/kg in 0.5% methylcellulose, starting at 5 weeks of age. For study of brain perivascular macrophages, ALS-Ctrl (n=8), ALS-ZLN (n=12), and WT animals (n=12) were sacrificed at 13 weeks of age. PBS-perfused brain tissues of sacrificed animals were digested with Collagenase IV and processed for flow cytometry. Brain perivascular macrophages were phenotyped with antibodies directed against mouse iNOS, IL6, and TNFα (Biolegend) for flow cytometric acquisition (LSRII, BD) and analysis (FlowJo). The results are summarized in FIG. 16; Y-axis represents % of brain perivascular macrophages that express iNOS (A), IL6 (B) and TNFα (C). […] ANOVA was used for statistical analyses.
smiles,measurement,setting,value
"CC(C)(C)c1ccc(-c2nc3ccccc3[nH]2)cc1 [ZLN005, 2-(4-tert-butylphenyl)-1H-benzimidazole]",latency to fall,[1],110 s
same,Ppargc1a protein expression in microglia,"[2]; MPTP-treated animals, 25 mg/kg orally, 3 doses, Day 4",enhanced Ppargc1a protein expression in microglia
same,blood-brain barrier penetration,"[2]; mouse, in vivo, po, 25 mg/kg",penetrated the blood-brain barrier
same,onset of hind limb paralysis,[3]; ALS transgenic mice,delayed
same,mean survival,"[3]; ALS transgenic, 25 mg/kg orally 3 times a week starting at 5 or 10 weeks of age, p <0.05 vs ALS-Ctrl",131 to 132 days
same,TNF-α production in microglia,[4]; MPTP-treated Cre animals (microglial Ppargc1a deletion),failed to exert its anti-inflammatory effects
same,TNF-α production in microglia,[4]; MPTP-treated FF animals,suppressed TNF-α production
same,latency to fall,"[5]; accelerating speed 5-15 rpm, p <0.05 vs Ctrl",194.0 s
same,latency to fall,"[5]; constant speed 10 rpm, difference to Ctrl not statistically significant",271.5 s
same,IL6 production in brain perivascular macrophages,[6],"suppressed, although these differences did not reach statistical significance"
same,TNFα production in brain perivascular macrophages,[6],"suppressed, although these differences did not reach statistical significance"
same,iNOS production in brain perivascular macrophages,[6],decreased
